From article PMC8706516, “Spray-Dried Powder Formulation of Capreomycin Designed for Inhaled Tuberculosis Therapy” (Pharmaceutics, 2021)
Where two headings read alike, the source gives them in different places. Marks after values point to notes of the source that are not given here.

Assay type: in vivo, BALB/c mice
Conditions: 20 mg/kg
Experimental: BALB/c mice of either gender aged 7 to 9 weeks weighing between 18 to 30 g were employed in this study. The mice were obtained from the Centre for Comparative Medicine Research, The University of Hong Kong. They were housed in a 12-h light/12-h dark cycle with food and water supplied ad libitum. All the animal experiments were performed with the approval from the Committee on the Use of Live Animals in Teaching and Research, The University of Hong Kong (CULATR 4921-19, approved on 1 February 2019).
The mice were randomly divided into two treatment groups (n = 45 per group, five mice per time point, nine time points in total). The intravenous (IV) group received capreomycin (sulfate) solution prepared in normal saline (4 mg/mL) via tail vein injection at a dose of 20 mg/kg. Intratracheal (IT) group received the C25_T90 formulation as powder aerosol intratracheally as previously described. In brief, the powder was loaded in a 200 µL gel loading pipette tip, which was connected with a three-way stopcock and 1 mL syringe. The pipette tip was inserted into the trachea of mice under anesthesia. The powder was dispersed into the lungs of mice by 0.6 mL of air in the syringe. After each powder insufflation, the pipette tip was removed and rinsed with 1 mL ultra-pure water. The rinsing solution was assayed by HPLC to calculate the residual mass of capreomycin in the tip. The delivered mass of capreomycin was calculated as drug content in the loaded mass of powder minus the residual mass of capreomycin in the tip. The insufflation efficiency (%) was the ratio of delivered mass of capreomycin to the loaded mass of capreomycin. According to a preliminary study, the insufflation efficiency of C25_T90 formulation was around 80% (unpublished data). […] The delivered dose within 17.5 to 22.5 mg/kg was considered successful administration, and mice that received dose outside this range were excluded. At 5 min, 15 min, 30 min, 1 h, 2 h, 4 h, 6 h, 8 h, and 24 h post-administration, the mice were euthanized with overdose pentobarbital (200 mg/kg). The whole blood was collected by cardiac puncture, followed by centrifugation at 13,000 rpm for 10 min to obtain the plasma. The lungs were collected and frozen in liquid nitrogen immediately. The plasma and lung tissues were stored at −80 °C until further analysis.
The extraction of capreomycin from plasma and tissue homogenates was performed according to a previous study with minor modification. Tissue homogenates were obtained by homogenizing the tissue with sterile water. A volume of 1 µL perchloric acid was added to a microcentrifuge tube containing 100 µL of plasma or tissue homogenates to induce protein precipitation. The mixtures were vortexed for 10 min and centrifuged at 16,000× g for 10 min. The supernatant was collected and neutralized with 110 µL basic mix of 1:10 KOH/K2HPO4 solution. The obtained mixtures were then vortexed, followed by centrifugation at 16,000× g for 15 min. The supernatant was transferred to glass vials for HPLC analysis. A standard curve was obtained by spiking known concentrations of capreomycin (0.6 to 40.0 µg/mL) into blank plasma or blank lung tissue homogenate followed by treatment as mentioned above. HPLC was performed using a C18 column (5 μm, 4.6 × 250 mm, Agilent, Santa Clara, CA, USA) with a guard cartridge. In this HPLC method, HFBA replaced TFA to improve peak resolution of the samples. The mobile phase consisted of 0.1% HFBA in ultrapure water (solvent A) and 0.1% HFBA in HPLC grade acetonitrile (solvent B), pumped at 1 mL/min under the following gradient: 0 to 2 min, 80% A; 2 to 22 min, 80–20% A; 22 to 25 min, 20% A (v/v). A volume of 50 µL sample was injected and capreomycin was detected by UV absorption at 268 nm. Capreomycin eluted at approximately 9.7 min with this method. […]

[1] = lung tissue, intravenous solution
[2] = lung tissue, intravenous, solution in normal saline, HPLC-UV, noncompartmental, mean ± SD, n = 5
[3] = lung tissue, intravenous, solution in normal saline, HPLC-UV, noncompartmental, mean ± SD, only three sets of data
[4] = plasma, intravenous, solution in normal saline, HPLC-UV, noncompartmental, mean ± SD, n = 5

For Capreomycin, which “Time after administration at which capreomycin was no longer detectable in the lung” value [1] is on record?
The value was 1 h.

What about the “Time to Cmax” value [1] of the same substance?
Its value is no more than 20 min.

What about the “AUC0–t” value [2] of the same substance?
The value was 6710 ± 510 ng·h/mL.

What about the Cmax [2] of the same substance?
The Cmax was 18.23 ± 8.34 µg/g.

What about the MRT [2] of the same substance?
The MRT was 13.8 ± 7.8 min.

What about the Tmax [2] of the same substance?
The Tmax was 7.2 ± 4.2 min.

What about the “AUC0–∞” value [3] of the same substance?
Its value is 7.78 ± 0.46 ^b µg·h/mL.

What about the Kel [3] of the same substance?
Its Kel is 2.37 ± 0.23 ^b h^−1.

What about the t1/2 [3] of the same substance?
The t1/2 was 0.29 ± 0.03 ^b h.

What about the Cmax [4] of the same substance?
The Cmax was 74.89 ± 10.94 µg/mL.

And the “Tmax” value (plasma, intravenous solution)?
The value was no more than 10 min.

What about the “AUC0–t” value [4] of the same substance?
The value was 32550 ± 5520 ng·h/mL.

And the “AUC0–∞” value [4]?
The value was 33.78 ± 5.54 µg·h/mL.

What about the Kel [4] of the same substance?
The Kel was 2.74 ± 1.67 h⁻¹.

What about the t1/2 [4] of the same substance?
Its t1/2 is 0.34 ± 0.20 h.
